{"source": "patent US20250051300A1", "about": "“GRAM-NEGATIVE SPECIFIC ANTIBIOTICS SPARING EFFECT ON GUT MICROBIOME” (THE BOARD OF TRUSTEES OF THE UNIVERSITY OF ILLINOIS, priority 2021, published 2025)", "key": {"Blautia producta": {"test_system": "Blautia producta", "assay": "MIC, gut commensal bacteria, micro-dilution broth"}, "Escherichia coli": {"test_system": "Escherichia coli", "assay": "MIC, micro-dilution broth method (CLSI)", "assay_type": "cell-based", "conditions": "Escherichia coli"}, "[1]": {"assay": "Pharmacokinetic assessment in mice (serum, LC-MS/MS)", "assay_type": "in vivo, C57BL/6 mice", "conditions": "for Cmax / half-life / AUC: female, 200 mg/kg single dose; for Cmax / half-life: C57BL/6, mouse, serum; for AUC: C57BL/6, mouse serum", "experimental": "C57BL/6 mice were treated with lolamcyin at a single dose of 200 mg/kg via IP injection (formulated in 50% DMSO and 50% PEG400) or oral gavage (formulated in 20% DMSO, 30% water, and 50% PEG400) with three mice per time point (0, 15, 30, 45, 60, 120, 240, 480, 960, and 1,440 min). Mice were then sacrificed and serum concentrations of lolamycin were determined by liquid chromatography-tandem mass spectrometry (LC-MS/MS). Oral bioavailability was calculated by comparing the concentration of lolamycin in mouse serum levels resulting from these two administration routes.\nPharmacokinetic Assessment of compound 2 and lolamycin. The protocol was approved by the Institutional Animal Care and Use Committee (IACUC) at the University of Illinois at Urbana-Champaign. In these studies, 10- to 12-week-old female C57BL/6 mice purchased from Charles River Laboratories were used. Mice were randomly chosen and divided into subsequent groups. No additional randomization was used to allocate the experimental groups; blinding was not performed for subsequent quantitation. First, the pharmacokinetic assessment via intraperitoneal injection was determined. Compound 2 and lolamycin were formulated in 50% DMSO and 50% PEG400. Mice were treated with compound 2 (200 mg/kg) or lolamycin (200 mg/kg) via intraperitoneal injection, with three mice per time point (0, 15, 30, 45, 60, 120, 240, 480, 960, and 1,440 min). At the specified time points, mice were killed, blood was collected and centrifuged, and the serum was frozen at −80° C. until analysis. The proteins in a 10-μL aliquot of serum were precipitated by the addition of 50 μL methanol with the addition of 10 μL internal standard. The sample was then vortexed and centrifuged to remove the proteins. Supernatants were analyzed with the QTRAP 5500 LC/MS/MS system (Sciex) in the Metabolomics Laboratory of the Roy J. Carver Biotechnology Center, University of Illinois at Urbana-Champaign.\nNext, the pharmacokinetic assessment via oral gavage was determined. Lolamycin was formulated in 20% DMSO, 30% water, and 50% PEG400. Mice were treated with lolamycin (200 mg/kg) via oral gavage, with three mice per time point (0, 15, 30, 45, 60, 120, 240, 480, 960, and 1,440 min). At the specified time points, mice were killed, blood was collected and centrifuged, and the serum was frozen at −80° C. until analysis similar to before. Software Analyst 1.6.2 was used for data acquisition and analysis. The 1200 Series HPLC system (Agilent Technologies) includes a degasser, an autosampler and a binary pump. The liquid chromatography separation was performed on an Agilent Zorbax SB-Aq column (4.6×50 mm; 5 μm) with mobile phase A (0.1% formic acid in water) and mobile phase B (0.1% formic acid in acetonitrile). The autosampler was set at 10° C. The injection volume was 5 μL. Mass spectra were acquired using electrospray ionization with a voltage of 5,500 V. The source temperature was 450° C. The curtain gas, ion source gas 1 and ion source gas 2 were […], respectively. Multiple reaction monitoring was used for quantitation with external standard. The limit of quantitation of (S/N=10) was 1 nM. Pharmacokinetic parameters were calculated with a one-compartment model using a nonlinear regression program (Phoenix WinNonlin Version 8.1; Certara USA)."}, "[2]": {"test_system": "Staphylococcus epidermidis", "assay": "MIC, micro-dilution broth method (CLSI)", "assay_type": "cell-based", "conditions": "Staphylococcus epidermidis NRS101", "description": "Antimicrobial susceptibility assays."}, "E. cloacae ATCC 29893": {"test_system": "E. cloacae ATCC 29893", "assay": "Resistance frequency, large inoculum method", "assay_type": "cell-based, Enterobacter cloacae", "conditions": "wild-type E. cloacae ATCC 29893, 8×MIC", "experimental": "Selection of resistant mutants. Resistant mutants were selected using the large inoculum method. Briefly, E. coli BW25113, K. pneumoniae ATCC 27736, or E. cloacae ATCC 29893 (˜1.0×10^7 c.f.u.) was plated on 100-mm plates of Luria Bertani agar containing 8, 16, 32, or 64 μg/mL, lolamycin. For E. coli ΔtolC (JW5503), ˜1.0×10^7 c.f.u. was plated on 100-mm plates of Luria Bertani agar containing 0.063, 0.13, 0.25, 0.5 μg/mL lolamycin. Colonies were visible after incubating at 37° C. for 48 h. Resistant colonies were confirmed by growing colonies in selective media with the same concentration of lolamycin."}, "[3]": {"test_system": "Streptococcus parasanguinis", "assay": "MIC, gut commensal bacteria, micro-dilution broth"}}, "note": "Like-named read-outs stand apart in the source and are kept apart here.", "data": [{"compound": "Cc1cc(-c2c[nH]nc2-c2cccc(OCc3cccc(C#N)c3)c2)cc(C)n1", "note": "[Compound 12, 3-((3-(4-(2,6-dimethylpyridin-4-yl)-1H-pyrazol-3-yl)phenoxy)methyl)benzonitrile]", "values": [{"measurement": "MIC", "setting": "Blautia producta", "value": "> 128", "unit": "µg/mL"}, {"measurement": "MIC", "setting": "Blautia producta; Blautia producta, ATCC27340", "value": "> 128", "unit": "µg/mL"}, {"measurement": "MIC", "setting": "Escherichia coli; ATCC25922, E. coli ATCC 25922, read-out: MIC", "value": 1, "unit": "µg/mL"}, {"measurement": "MIC", "setting": "Escherichia coli; ATCCBAA2340, E. coli ATCC BAA-2340, read-out: MIC", "value": 2, "unit": "µg/mL"}, {"measurement": "MIC", "setting": "Escherichia coli; ATCCBAA2469, E. coli ATCC BAA-2469, read-out: MIC", "value": 1, "unit": "µg/mL"}, {"measurement": "MIC", "setting": "Escherichia coli; ATCCBAA2471, E. coli ATCC BAA-2471, read-out: MIC", "value": 4, "unit": "µg/mL"}, {"measurement": "MIC", "setting": "Escherichia coli; E. coli AR0048, read-out: MIC", "value": 4, "unit": "µg/mL"}, {"measurement": "MIC", "setting": "Escherichia coli; E. coli AR0055, read-out: MIC", "value": 2, "unit": "µg/mL"}, {"measurement": "MIC", "setting": "Escherichia coli; E. coli AR0058, read-out: MIC", "value": 2, "unit": "µg/mL"}, {"measurement": "MIC", "setting": "Escherichia coli; E. coli AR0061, read-out: MIC", "value": 8, "unit": "µg/mL"}, {"measurement": "MIC", "setting": "Escherichia coli; E. coli AR0067, read-out: MIC", "value": 2, "unit": "µg/mL"}, {"measurement": "MIC", "setting": "Escherichia coli; E. coli AR0069, read-out: MIC", "value": 2, "unit": "µg/mL"}, {"measurement": "MIC", "setting": "Escherichia coli; E. coli AR0077, read-out: MIC", "value": 1, "unit": "µg/mL"}, {"measurement": "MIC", "setting": "Escherichia coli; E. coli AR0081, read-out: MIC", "value": 2, "unit": "µg/mL"}, {"measurement": "MIC", "setting": "Escherichia coli; E. coli AR0084, read-out: MIC", "value": 2, "unit": "µg/mL"}, {"measurement": "MIC", "setting": "Escherichia coli; E. coli AR0085, read-out: MIC", "value": 1, "unit": "µg/mL"}, {"measurement": "MIC", "setting": "Escherichia coli; E. coli AR0086, read-out: MIC", "value": 0.5, "unit": "µg/mL"}, {"measurement": "MIC", "setting": "Escherichia coli; E. coli AR0089, read-out: MIC", "value": 2, "unit": "µg/mL"}, {"measurement": "MIC", "setting": "Escherichia coli; E. coli AR0104, read-out: MIC", "value": 1, "unit": "µg/mL"}, {"measurement": "MIC", "setting": "Escherichia coli; E. coli AR0114, read-out: MIC", "value": 2, "unit": "µg/mL"}, {"measurement": "MIC", "setting": "Escherichia coli; E. coli AR0118, read-out: MIC", "value": 1, "unit": "µg/mL"}, {"measurement": "MIC", "setting": "Escherichia coli; E. coli AR0119, read-out: MIC", "value": 4, "unit": "µg/mL"}, {"measurement": "MIC", "setting": "Escherichia coli; E. coli AR0128, read-out: MIC", "value": 1, "unit": "µg/mL"}, {"measurement": "MIC", "setting": "Escherichia coli; E. coli AR0137, read-out: MIC", "value": 2, "unit": "µg/mL"}, {"measurement": "MIC", "setting": "Escherichia coli; E. coli AR0149, read-out: MIC", "value": 2, "unit": "µg/mL"}, {"measurement": "MIC", "setting": "Escherichia coli; E. coli AR0150, read-out: MIC", "value": 1, "unit": "µg/mL"}, {"measurement": "MIC", "setting": "Escherichia coli; E. coli AR0151, read-out: MIC", "value": 2, "unit": "µg/mL"}, {"measurement": "MIC", "setting": "Escherichia coli; E. coli AR0162, read-out: MIC", "value": 4, "unit": "µg/mL"}, {"measurement": "MIC", "setting": "Escherichia coli; E. coli AR0346, read-out: MIC", "value": 2, "unit": "µg/mL"}, {"measurement": "MIC", "setting": "Escherichia coli; E. coli AR0348, read-out: MIC", "value": 2, "unit": "µg/mL"}, {"measurement": "MIC", "setting": "Escherichia coli; E. coli AR0350, read-out: MIC", "value": 1, "unit": "µg/mL"}, {"measurement": "MIC", "setting": "Escherichia coli; E. coli AR0493, read-out: MIC", "value": 4, "unit": "µg/mL"}, {"measurement": "MIC", "setting": "Escherichia coli; E. coli AR0494, read-out: MIC", "value": 4, "unit": "µg/mL"}, {"measurement": "MIC", "setting": "Escherichia coli; E. coli AR0495, read-out: MIC", "value": 2, "unit": "µg/mL"}, {"measurement": "MIC", "setting": "Escherichia coli; E. coli AR0541, read-out: MIC", "value": 1, "unit": "µg/mL"}, {"measurement": "MIC", "setting": "Escherichia coli; E. coli AR0543, read-out: MIC", "value": 4, "unit": "µg/mL"}, {"measurement": "MIC", "setting": "Escherichia coli; E. coli AR0546, read-out: MIC", "value": 0.5, "unit": "µg/mL"}, {"measurement": "MIC", "setting": "Escherichia coli; E. coli AR0551, read-out: MIC", "value": 2, "unit": "µg/mL"}, {"measurement": "MIC", "setting": "Escherichia coli; E. coli AR0559, read-out: MIC", "value": 2, "unit": "µg/mL"}, {"measurement": "MIC", "setting": "Escherichia coli; E. coli AR-0349 (colistin-resistant clinical isolate), read-out: MIC", "value": 1, "unit": "µg/mL"}, {"measurement": "MIC", "setting": "Escherichia coli; E. coli AR-0549, read-out: MIC", "value": 2, "unit": "µg/mL"}, {"measurement": "MIC", "setting": "Escherichia coli; E. coli ELZ 4004, read-out: MIC", "value": 2, "unit": "µg/mL"}, {"measurement": "MIC", "setting": "Escherichia coli; E. coli ELZ 4017, read-out: MIC", "value": 2, "unit": "µg/mL"}, {"measurement": "MIC", "setting": "Escherichia coli; E. coli ELZ 4042, read-out: MIC", "value": 4, "unit": "µg/mL"}, {"measurement": "MIC", "setting": "Escherichia coli; E. coli ELZ 4072, read-out: MIC", "value": 2, "unit": "µg/mL"}, {"measurement": "MIC", "setting": "Escherichia coli; E. coli ELZ 4081, read-out: MIC", "value": 2, "unit": "µg/mL"}, {"measurement": "MIC", "setting": "Escherichia coli; E. coli ELZ 4139, read-out: MIC", "value": 8, "unit": "µg/mL"}, {"measurement": "MIC", "setting": "Escherichia coli; E. coli ELZ 4239, read-out: MIC", "value": 4, "unit": "µg/mL"}, {"measurement": "MIC", "setting": "Escherichia coli; E. coli ELZ 4277, read-out: MIC", "value": 2, "unit": "µg/mL"}, {"measurement": "MIC", "setting": "Escherichia coli; E. coli ELZ 4346, read-out: MIC", "value": 2, "unit": "µg/mL"}, {"measurement": "MIC", "setting": "Escherichia coli; E. coli ΔrfaC JW3596 (permeability mutant)", "value": 0.06, "unit": "µg/mL"}, {"measurement": "MIC", "setting": "Escherichia coli; E. coli ΔtolC JW5503 (efflux-deficient)", "value": 0.008, "unit": "µg/mL"}, {"measurement": "Cmax", "setting": "[1]; IP injection", "value": 38.2, "unit": "µM"}, {"measurement": "half-life", "setting": "[1]; IP injection", "value": 2.07, "unit": "h"}, {"measurement": "Cmax", "setting": "[1]; oral gavage", "value": 26.4, "unit": "µM"}, {"measurement": "half-life", "setting": "[1]; oral gavage", "value": 1.1, "unit": "h"}, {"measurement": "AUC", "setting": "[1]; IP injection", "value": 43400, "unit": "ng·h/mL"}, {"measurement": "AUC", "setting": "[1]; oral gavage", "value": 20500, "unit": "ng·h/mL"}, {"measurement": "Oral bioavailability", "setting": "[1]; mice, oral vs IP, 200 mg/kg", "value": "significant oral bioavailability"}, {"measurement": "MIC", "setting": "[2]", "value": "> 128", "unit": "µg/mL"}, {"measurement": "resistance frequency", "setting": "E. cloacae ATCC 29893", "value": "5.2×10^−7"}, {"measurement": "MIC", "setting": "[3]; Streptococcus parasanguinis", "value": "> 128", "unit": "µg/mL"}, {"measurement": "MIC", "setting": "[3]; Streptococcus parasanguinis KLE 2375, BHI-ych, listed as Lolamycin", "value": ">128", "unit": "µg/mL"}]}]}
